# Entries after “also recorded” stand apart in the source; their conditions may differ.
# Assays:
# [1] = tested on: TNFα, Il-6, and Il-1; conditions: cited from earlier work
# Description: The purpose of this study was to investigate an alternative mechanism for 4F decreasing myocardial inflammation in Tsk^−/+mice. While our previous report focused on 4F’s ability to decrease inflammation by improving HDL function, the current study determines the effects of 4F on IRF5. We chose to investigate this potential mechanism for two important reasons. […] These inflammatory mediators are all gene products of IRF5 [9], [29]. Second, genetic links between IRF5 and SSc have been ide ...
# [2] = tested on: Tsk−/+ hearts; experiment: TUNEL assay, apoptotic cells in heart sections; format: in vivo, mouse; conditions: 4F 1 mg/kg/d, sc; 4F-treated vs untreated Tsk−/+ hearts
# Description: (§1) All experimental procedures and protocols involving mice were reviewed and approved by the Institutional Animal Care and Use Committee (IACUC) of the Medical College of Wisconsin (AUA#512). They also conformed to the rules in the Guiding Principles in the Care and Use of Animals published by the American Physiologic Society and the Guide for the Care and Use of Laboratory Animals published by OLAW. Male Tsk^−/+ and C57Bl/6J mice (6–8 weeks of age) were purchased from Jackson Laboratories (Bar Harbor, ME). Three groups of mice were studied; C57Bl/6J, Tsk^−/+, and Tsk^−/+ mice treated with 4F (1 mg/kg/d, sc) as published previously.
# Hearts were harvested from mice, flash frozen and imbedded in OCT and cut into 10 µm sections. A TUNEL assay was performed on the sections using an ApopTag Plus Fluorescein labeled kit (Millipore, Billerica, MA, Cat# S7111) as per the manufacturer’s instructions. Briefly, the free 3'OH DNA termini were labeled in situ with an anti-digoxigenin antibody conjugated to fluorescein. Nuclei were stained with TO-PRO 3™ for 3 minutes (1 µg/ml, Invitrogen). Slides were mounted and analyzed by confocal microscopy (Nikon Eclipse TE2000-U, EZ-C1-2 10 software, Nikon, Melville, NY). Images were captured using 488 nm excitation for fluorescein and 633 nm for nuclear labeling. Intensity was measured using Nikon Element imaging software (Nikon).
# [3] = tested on: proinflammatory HDL; conditions: cited from earlier work
# Description: Scleroderma is an autoimmune disease that is characterized by marked increases in fibrosis of the skin and internal organs in conjunction with enhanced apoptosis. The tight skin (Tsk^−/+) mouse is a murine model of systemic scleroderma that replicates many of the features observed in patients suffering from this disease.
# [4] = cited from earlier work
# Description: (§2) Although there is much support for the idea that 4F inhibits atherosclerosis by improving HDL function, the mechanism by which 4F decreases inflammation has not been identified completely. […] During the course of our studies for our report, [3], we found the anti-inflammatory effects of 4F on the Tsk^−/+ mice to be so profound that it was ...
# [5] = tested on: HDL; conditions: proposed mechanism; cited from earlier work
# Description: as §2
# [6] = tested on: Tsk−/+ mice; conditions: 1 mg/kg/d, 6–8 weeks; cited from earlier work
# Description: One of the reasons that we felt 4F decreased inflammation by a mechanism(s) other than those mediated by HDL function, was the extreme differences in the histopathology of the hearts from untreated and 4F treated Tsk^−/+ mice. Untreated Tsk^−/+ hearts contained much higher levels of oxidized phospholipids, and autoantibodies against oxidized lipids than control hearts. In addition, untreated Tsk^−/+ hearts were also more fibrotic and expressed more angiostatin than control hearts, which likely contributed to the notable losses in angiogenic potential in the hearts of these mice. Wh ...
# [7] = tested on: IRF5; experiment: IRF5 immunoprecipitation, phosphoserine and ubiquitin on IRF5 in heart lysates; format: in vivo, mouse
# Description: as §1
# To determine the effects of strain and 4F treatments on the activation state of IRF5 we immunoprecipitated IRF5 from heart homogenates and examined changes in phosphoserine and ubiquitination on IRF5 using previously published protocols, [15]. Briefly, heart homogenates were precleared with agarose beads for 1 hour followed by addition of anti-IRF5 antibody (Santa Cruz Biotechnologies) to the homogenates (500 µg in 0.5 ml) at 5 µg/100 µl (final concentration). Samples were incubated for 16 h at 4°C with end-over-end mixing. A 50 µl aliquot of a 50% slurry of Protein A agarose beads (Santa Cruz Biotechnologies) was added and incubated for 2 h with end-over-end mixing to pull-down immunocaptured IRF5. The beads were isolated by centrifugation and washed 3 times (3 minutes each time) in PBS. IRF5 was released from the beads with Laemmli sample buffer (Bio-Rad, Hercules, CA) containing mercaptoethanol and heating to 95°C for 5 min. IRF5 was separated from co-precipitated proteins by SDS-PAGE (4–15% Tris·HCl Criterion gels, Bio-Rad) and the proteins transferred onto nitrocellulose membranes. Membranes were blocked in 10% non-fat dry milk and then incubated in 2% non-fat dry milk containing polyclonal rabbit anti-phosphoserine (Antibodies-Online, Atlanta, GA, 1∶200 dilution), monoclonal mouse anti-ubiquitin (Santa Cruz Biotechnologies, 1∶200 dilution) or monoclonal mouse anti-K^63 ubiquitin (Enzo, Farmingdale, NY, 1∶500 dilution) overnight at 4°C. The next day, the membranes were gently washed and incubated with the HRP-conjugated donkey anti-rabbit antibody (1∶5,000, Santa Cruz Biotechnologies). Autoradiograms were developed; images of bands captured and densities analyzed as described above.
substance,measurement,setting,value
Ac-DWFKAFYDKVAEKFKEAF-NH2 [4F],"expression of TNFα, Il-6, and Il-1",[1],"decreases expression of TNFα, Il-6, and Il-1"
same,TUNEL positive (apoptotic) cells,[2],decreased both measurements in Tsk^−/+ hearts; also recorded: significantly decreased the number of TUNEL positive cells in Tsk^−/+ hearts compared to the number in untreated Tsk^−/+ hearts but not to the level of TUNEL positive cells in C57Bl/6J hearts; also recorded: increased compared with the levels in the hearts of C57BL/6J mice and hearts from 4F-treated Tsk^−/+ mice; also recorded: fewer apoptotic cells than hearts from untreated Tsk^−/+ mice
same,proinflammatory HDL levels,[3],decrease proinflammatory HDL levels
same,affinity for oxidized versus native lipids,[4],greater affinity for oxidized rather than native lipids
same,preβ HDL formation and HDL-dependent cholesterol efflux,[5],formation of preβ HDL with improved HDL-dependent cholesterol efflux
same,reverse cholesterol transport,[5],improvements in reverse cholesterol transport
same,oxidized phospholipids and autoantibodies against oxidized phospholipids in hearts,[6],"essentially eliminated oxidized phospholipids, and autoantibodies against oxidized phospholipids from the hearts"
same,phosphoserine levels on IRF5 (in words),"[7]; 4F 1 mg/kg/d, sc, Tsk−/+ hearts, IRF5 immunoprecipitates",decrease phosphoserine; also recorded: reduced phosphoserine levels on IRF5 in Tsk^−/+ hearts
same,decrease of phosphoserine levels on IRF5,"[7]; 4F-treated Tsk−/+ hearts vs C57BL/6J and untreated Tsk−/+ hearts, IRF5 immunoprecipitates, Western blot",about 15%
same,total ubiquitin on IRF5,"[7]; 4F-treated Tsk−/+ hearts vs C57BL/6J hearts, * = p<0.05, n = 4, IRF5 immunoprecipitates",increase total ubiquitin on IRF5; also recorded: increased in 4F-treated Tsk^−/+ hearts compared with the levels on IRF5 in C57BL/6J hearts; also recorded: significantly increased total ubiquitin levels on IRF5 in the Tsk^−/+ hearts
same,IRF5 activation (in words),"[7]; 4F-treated Tsk−/+ hearts, inferred from phosphoserine and ubiquitin on IRF5",decrease IRF5 expression and activation in Tsk^−/+ hearts; also recorded: inactivated in 4F-treated Tsk^−/+ hearts

# — publication PMC3522636, “4F Decreases IRF5 Expression and Activation in Hearts of Tight Skin Mice” (PLoS ONE, 2012)
